We go through 11 molecules from PubChem BioAssay (NCI).

Holding throughout (test): DTP human tumour cell line panel, 48 h
In assay [1] the test system is T-47D breast.
For assay [2], the system named is K-562 leukemia.
For assay [3], the system named is DLD-1 colon.
Assay [4] concerns NCI-H226 lung.
Assay [5] concerns SW-620 colon.
The test system of assay [6] is MDA-N.
Assay [7] relates to UO-31 renal.
Assay [8] relates to SK-MEL-2 melanoma.
Assay [9] relates to A549 NSCLC.
For assay [10], the system named is MCF7 breast.

Converted amounts (≈) assume the structure as drawn. “And” between values parts separate entries of the source, which are not always exact repeats. Identical values can stand only once.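 Protocol summary: plate cells (96-well), add compound at 5 concentrations, incubate 48 h, interpolate endpoints linearly. GI50 is the concentration that inhibits growth by half. TGI marks complete inhibition of growth.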

`COc1c(OC(C)C)cc2cc(O)c(C(=O)NC3Cc4ccc(c(Cl)n4)O[C@@H]4C=C5C#C/C(=C\C#CC6OC56C4OC4CC(C)(O)C(O)C(C)O4)C(OC4CC(O)C(N(C)C)C(C)O4)COC3=O)cc2c1OC` (some centres undefined): the TGI is over 36.3 µM in assay [1]; > 36.3 µM and 37.5 µg/mL in assay [2]; 37.5 µg/mL in assay [3]; > 36.3 µM and 37.5 µg/mL in assay [4]; 37.5 µg/mL in assay [5]; over 36.3 µM in assay [6]. The TGI in [7] was > 36.3 µM and 37.5 µg/mL; in assay [8] it was > 36.3 µM and 31.8 µg/mL; in assay [9] it was > 36.3 µM and 37.5 µg/mL; in [10] it was over 36.3 µM. Further, the GI50 was > 36.3 µM and 0.823 µg/mL in assay [2]; 8.16 µg/mL (≈ 7.92 µM) in [3]; 2.8 µg/mL (≈ 2.72 µM) in assay [4]; 0.165 µg/mL (≈ 0.16 µM) in assay [5]; > 36.3 µM and 6.42 µg/mL in [7]; 10 µg/mL (≈ 9.74 µM) in assay [8]. Moreover, the GI50 in [9] was > 36.3 µM and 0.798 µg/mL.

As to `C#CCNC(=O)NC(CCCCNC(=O)OCc1ccccc1)C(=O)OCc1ccccc1` (centres undefined), the TGI in [1] is over 32.4 µM; in assay [2], over 100 µM; in [3], over 100 µM; in assay [4] it was over 100 µM; in assay [5], over 100 µM; in [6], over 68.3 µM. Further, the TGI in assay [7] is 44.6 µM; in assay [8], over 75.8 µM; in assay [9], over 100 µM; in assay [10], over 100 µM.

With `C/C(=N\NC(=O)C(N)=O)c1c(O)cc(C)oc1=O`, the TGI in assay [2], in assay [3], in [4], in [5], in assay [7] and in assay [8] was over 100 µM each time. In addition, the TGI in [9] was over 100 µM.

In the case of `CC(=O)CC(=O)CCC(=O)Nc1cccc(C(F)(F)F)c1`, the TGI in [2], in assay [3], in [4], in assay [5], in [7] and in assay [8] was over 100 µM in each case. In assay [9], this molecule showed a TGI of over 100 µM.

With `C=C1C=CC2(Br)OC3CC(C)(Cl)C(Br)CC13C2(C)C` (centres undefined), the TGI in assay [2] was 36.8 µM; in [3] it was over 100 µM; in assay [4] it was 34.1 µM; in assay [5], 56 µM; in assay [7], 70.5 µM; in assay [8], 31.9 µM. This molecule also gave a TGI in assay [9] of over 100 µM.

For the molecule `O=C(Cc1ccccc1)C(c1ccccc1)S(=O)(=O)c1ccccc1` (centres undefined), the TGI in [2], in [3], in [4], in [5], in [7] and in assay [8] was over 100 µM throughout. This molecule returned a TGI in assay [9] of over 100 µM.

Consider `Cc1ccc(C2=Nc3ccccc3SC(c3cccc4c3OCO4)C2)cc1` (centres undefined), for which the TGI in [2] was determined as 38.3 µM; in [3], 90.3 µM; in [4] it was 37 µM; in assay [5], 39.8 µM; in [7], 27.3 µM; in assay [8], 44 µM. The TGI in [9] turned out to be 72.4 µM.

With `CC(C)(C)c1cc(C(=O)O)c2c(c1)C(=O)OC2(c1ccccc1)c1ccccc1C(=O)O` (centres undefined), the GI50 in assay [1] and in assay [10] was over 100 µM each time. Further, the TGI in assay [1], in assay [2], in assay [3], in assay [4], in assay [5] and in assay [7] was over 100 µM in each case. The TGI in assay [8], in assay [9] and in assay [10] was over 100 µM throughout.

Turning to `N#CNC1=NC(N)C(c2nc3ccccc3[nH]2)=C(CCCC(=O)Nc2cccc([N+](=O)[O-])c2)N1` (centres undefined), the TGI in [2], in assay [3], in assay [4], in assay [5], in [7] and in assay [8] was over 100 µM in each case. In [9], this molecule gave a TGI of over 100 µM.

Take `Cc1ccc(NC(=O)/C(C#N)=C/c2ccccc2)c(C)c1`: the TGI in assay [2], in assay [3], in assay [4], in assay [5], in [7] and in [8] was over 100 µM throughout. In assay [9], the TGI is over 100 µM.

Regarding `c1ccc(-c2csc3ncn4cnnc4c23)cc1`, the TGI in assay [2], in assay [3], in [4], in [5], in assay [7] and in assay [8] was over 100 µM each time. This molecule also came in with a TGI in assay [9] of over 100 µM.
